Experimental data reported in ChEMBL document CHEMBL5029201, “Development of Polyamine Lassos as Polyamine Transport Inhibitors” (ACS Med Chem Lett, 2022).
The source made the active and inactive calls. The rule behind the calls is not given here.

Columns and labels:
[1] = system: L3.6pl; test: Inhibition of [3H]putresine uptake in human L3.6pI cells at up to 30 uM measured after 15 mins by scintillation counter method; assay type: functional, cell-based; conditions: dose microM <=30, time 15.0 min
[2] = system: L3.6pl; test: Inhibition of spermidine uptake in human L3.6pI cells assessed as effect on cell growth measured after 72 hrs in presence of DFMO by CellTiter96 aqueous one solution assay; assay type: functional, cell-based
[3] = Decrease in intracellular polyamine level in human L3.6pI cells assessed as Spd/Spm molar ratio at 30 uM measured after 24 hrs by HPLC analysis (reference value: 1.9); assay type: functional, L3.6pl
[4] = Decrease in intracellular polyamine level in human L3.6pI cells assessed as total polyamine level at 30 uM measured after 24 hrs in presence of DFMO and Spd by HPLC analysis (reference value: 23.5 nmol/mg); assay type: functional, L3.6pl
[5] = Inhibition of polyamine transport system in human L3.6pI cells assessed as reduction in [3H] spermine uptake by Lineweaver-Burk double reciprocal plot analysis; assay type: cell-based; conditions: l3.6pl
[6] = system: L3.6pl; test: Cytotoxicity against human L3.6pl cells assessed as reduction in cell growth measured after 72 hrs by CellTiter96 one aqueous solution assay; assay type: cell-based; conditions: for IC50: Homo sapiens, L3.6pl; for MTC: human, l3.6pl, time 72 hrs
[7] = Decrease in intracellular polyamine level in human L3.6pI cells assessed as total polyamine level at 30 uM measured after 24 hrs by HPLC analysis (reference value: 35.9 nmol/mg); assay type: functional, L3.6pl
[8] = Decrease in intracellular polyamine level in human L3.6pI cells assessed as total polyamine level at 30 uM measured after 24 hrs in presence of DFMO by HPLC analysis (reference value: 20.7 nmol/mg); assay type: functional, L3.6pl
[9] = Inhibition of polyamine transport system in human L3.6pI cells assessed as reduction in [3H] putrescine uptake by Lineweaver-Burk double reciprocal plot analysis; assay type: cell-based; conditions: l3.6pl
[10] = system: L3.6pl; test: Effect on human L3.6pI cells assessed as rescue of Ant44-induced toxicity at 30 uM measured after 24 hrs; assay type: functional
[11] = system: L1210; test: (§1) Cytotoxicity against murine L1210 cells assessed as reduction in cell growth measured after 72 hrs by CellTiter96 one aqueous solution assay; assay type: cell-based, Mus musculus; conditions: Mus musculus, L1210, 72 h
[12] = as §1; assay type: cell-based, Mus musculus; conditions: mouse, L1210 cells; time 72 hrs; read-out: MTC
[13] = Inhibition of polyamine transport system in murine L1210 cells assessed as reduction in [3H] spermidine uptake by Lineweaver-Burk double reciprocal plot analysis; assay type: cell-based, Mus musculus
[14] = Decrease in intracellular polyamine level in human L3.6pI cells assessed as Spd/Spm molar ratio at 30 uM measured after 24 hrs in presence of DFMO and Spd by HPLC analysis (reference value: 0.4); assay type: functional, L3.6pl
[15] = system: L3.6pl; test: Inhibition of [3H]spermine uptake in human L3.6pI cells at 3 to 10 uM measured after 15 mins by scintillation counter method; assay type: functional, cell-based; conditions: dose 3-10 µM
[16] = system: L3.6pl; test: Inhibition of [3H]spermidine uptake in human L3.6pI cells at 3 to 10 uM measured after 15 mins by scintillation counter method; assay type: functional, cell-based; conditions: dose 3-10 µM
[17] = Decrease in intracellular polyamine level in human L3.6pI cells assessed as Spd/Spm molar ratio at 30 uM measured after 24 hrs in presence of DFMO by HPLC analysis (reference value: 0.2); assay type: functional, L3.6pl
[18] = Inhibition of polyamine transport system in human L3.6pI cells assessed as reduction in [3H] spermidine uptake by Lineweaver-Burk double reciprocal plot analysis; assay type: cell-based; conditions: l3.6pl

SMILES	inhibition [1]	Activity [2]	Ratio [3]	Activity [4] [nmol/mg]	Ki [5] [µM]	IC50 [6] [µM]	MTC [6] [µM]	Activity [7] [nmol/mg]	Activity [8] [nmol/mg]	Ki [9] [µM]	Activity [10]	IC50 [11] [µM]	MCC at 72 h [12] [nM]	Ki [13] [µM]	Ratio [14]	inhibition [15]	inhibition [16]	Ratio [17]	Ki [18] [µM]
Cl.Cl.Cl.Cl.Cl.NCCCCNCCCCN1CCNCCNCC1	inactive	Active	1.6	20.8	1.3	1170	500	36.4	17	11.6	Active	> 100	> 100000	1.9	0.2	Active	Active	0.1	3.3
C1CNCCNCCN1	–	–	–	–	–	980	250	–	–	–	–	–	–	–	–	–	–	–	–
C1CNCCCNCCCNC1	–	–	–	–	–	129	50	–	–	–	–	–	–	–	–	–	–	–	–
CNCCCCNCCCCNCc1cc(CNCCCCNCCCCNC)cc(CNCCCCNCCCCNC)c1	–	–	–	–	0.9	50	3	–	–	17.4	–	–	–	–	–	Active	Active	–	2.6
Cl.Cl.Cl.Cl.Cl.NCCCCNCCCCN1CCCNCCCNCCC1	–	Active	–	–	–	368	100	–	–	–	–	> 100	1000	7.1	–	–	–	–	3.7
